For 25 compounds, IC50 results are on record in patent US8987314B2, “Amide, urea or sulfone amide linked benzothiazole inhibitors of endothelial lipase” (Bristol-Myers Squibb Company, priority 2012, dated 2015).

Experiment [1] has as its target Endothelial lipase (EL) (Homo sapiens (Human), UniProt Q9Y5X9). In words: EL assay: endothelial lipase activity with fluorescent substrate A10070 in DMPG vesicles. The experiment is classed as biochemical. An outline of the steps:
(§1)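 Substrate A10070 sits in sonicated DMPG vesicles at 0.11 mole fraction. Lipase and compound preincubated 30 min, 37° C, in HEPES pH 8.0 buffer with CaCl2.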

The target of experiment [2] is hepatic lipase (HL) (Homo sapiens (Human), UniProt P11150). Put plainly: HL assay: hepatic lipase activity with fluorescent substrate A10070 in DMPG vesicles. Type of experiment: biochemical. An outline of the steps: as §1
hepatic lipase (HL), sequence (P11150 23-499, species assumed): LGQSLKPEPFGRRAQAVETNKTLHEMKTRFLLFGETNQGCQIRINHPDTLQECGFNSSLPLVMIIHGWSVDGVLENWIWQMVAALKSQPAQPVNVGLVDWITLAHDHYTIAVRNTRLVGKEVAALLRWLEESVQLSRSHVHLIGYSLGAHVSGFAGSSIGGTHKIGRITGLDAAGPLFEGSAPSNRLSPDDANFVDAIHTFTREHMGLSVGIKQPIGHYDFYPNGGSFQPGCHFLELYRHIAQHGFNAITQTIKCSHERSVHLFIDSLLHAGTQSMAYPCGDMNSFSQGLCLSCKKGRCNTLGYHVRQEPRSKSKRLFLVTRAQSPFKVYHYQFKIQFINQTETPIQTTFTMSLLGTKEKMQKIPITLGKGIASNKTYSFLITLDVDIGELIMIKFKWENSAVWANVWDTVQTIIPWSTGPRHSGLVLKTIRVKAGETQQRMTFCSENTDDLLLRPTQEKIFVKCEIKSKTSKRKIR

Endothelial lipase (EL), sequence (Q9Y5X9 21-500): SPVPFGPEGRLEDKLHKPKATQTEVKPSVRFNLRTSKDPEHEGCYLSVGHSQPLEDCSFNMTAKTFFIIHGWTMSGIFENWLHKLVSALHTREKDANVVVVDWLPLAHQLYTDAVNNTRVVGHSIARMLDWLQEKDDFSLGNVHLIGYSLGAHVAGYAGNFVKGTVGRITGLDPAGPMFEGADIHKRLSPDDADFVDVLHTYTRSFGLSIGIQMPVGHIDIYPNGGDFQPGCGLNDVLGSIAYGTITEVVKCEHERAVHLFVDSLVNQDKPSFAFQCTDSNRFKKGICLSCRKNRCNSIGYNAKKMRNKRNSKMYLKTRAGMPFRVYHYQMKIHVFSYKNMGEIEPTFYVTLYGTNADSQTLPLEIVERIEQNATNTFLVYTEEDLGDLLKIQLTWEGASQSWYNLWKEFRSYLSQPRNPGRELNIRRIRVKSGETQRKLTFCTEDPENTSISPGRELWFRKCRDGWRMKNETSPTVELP

Consider `NS(=O)(=O)CCNC(=O)C(c1nc2ccc(-c3ccc(C(=O)N4CC(F)C4)cc3)cc2s1)S(=O)(=O)Cc1ccc(OC(F)(F)F)cc1` (centres unmarked) [Example B355, 2-{6-[4-(3-fluoroazetidine-1-carbonyl)phenyl]-1,3-benzothiazol-2-yl}-N-(2-sulfamoylethyl)-2-{[4-(trifluoromethoxy)phen-yl]methanesulfonyl}a-cetamide], for which the IC50 worked out at 6.6 nM in experiment [1] and 235 nM in experiment [2].

Take `CO[C@H]1CCN(C(=O)c2ccc(-c3ccc4nc(C(C(=O)NCCS(N)(=O)=O)S(=O)(=O)Cc5ccc(OC(F)(F)F)cc5)sc4c3)cc2)C1` (stereo partly drawn) [Example B356, 2-(6-{4-[(3S)-3-methoxy-pyrrolidine-1-carbonyl]phen-yl}-1,3-benzothiazol-2-yl)-N-(2-sulfamoyl-ethyl)-2-{[4-(trifluoro-methoxy)phenyl]methane-sulfonyl}acetamide]: the concentration for half-maximal inhibition (IC50) in experiment [1] amounted to 2.7 nM; in experiment [2], 26.7 nM.

Turning to `NS(=O)(=O)CCNC(=O)C(c1nc2ccc(-c3ccc(C(=O)N4CC(F)(F)C4)cc3)cc2s1)S(=O)(=O)Cc1ccc(C(F)(F)F)cc1` (centres unmarked) [Example B357, 2-{6-[4-(3,3-difluoro-azetidine-1-carbonyl)phen-yl]-1,3-benzothiazol-2-yl}-N-(2-sulfamoyl-ethyl)-2-{[4-(trifluoromethyl)phen-yl]methanesulfonyl}a-cetamide], the half-inhibitory concentration (IC50) in experiment [1] came out at 15 nM; in experiment [2] it was 93.2 nM.

Turning to `NS(=O)(=O)CCNC(=O)C(c1nc2ccc(-c3ccc4c(c3)CNC4=O)cc2s1)S(=O)(=O)Cc1ccc(C(F)(F)F)cc1` (centres unmarked) [Example B358, 2-[6-(1-oxo-2,3-dihydro-1H-isoindol-5-yl)-1,3-benzothiazol-2-yl]-N-(2-sulfamoylethyl)-2-{[4-(trifluoromethyl)phen-yl]methanesulfonyl}a-cetamide], the IC50 in experiment [1] was found to be 3.7 nM; in experiment [2], 67.6 nM.

In the case of `NS(=O)(=O)CCNC(=O)C(c1nc2ccc(-c3ccc(C(=O)N4CC(F)(F)C4)cc3)cc2s1)S(=O)(=O)Cc1cccc(C(F)(F)F)c1` (centres unmarked) [Example B359, 2-{6-[4-(3,3-difluoro-azetidine-1-carbonyl)phen-yl]-1,3-benzothiazol-2-yl}-N-(2-sulfamoyl-ethyl)-2-{[3-(trifluoromethyl)phen-yl]methanesulfonyl}a-cetamide], the figures for the IC50 in experiment [1] and in experiment [2] were 4.7 nM and 47 nM, respectively.

As to `CC1(O)CN(C(=O)c2ccc(-c3ccc4nc(C(C(=O)NCCS(N)(=O)=O)S(=O)(=O)Cc5cccc(C(F)(F)F)c5)sc4c3)cc2)C1` (centres unmarked) [Example B360, 2-{6-[4-(3-hydroxy-3-methylazetidine-1-carbonyl)phenyl]-1,3-benzothiazol-2-yl}-N-(2-sulfamoylethyl)-2-{[3-(trifluoromethyl)phen-yl]methanesulfonyl}a-cetamide], the IC50 was 6.2 nM in experiment [1] and 471 nM in experiment [2].

For the compound `Cn1cc(-c2ccc3nc(C(C(=O)NCCS(N)(=O)=O)S(=O)(=O)Cc4ccc(C(F)(F)F)cc4)sc3c2)ccc1=O` (centres unmarked) [Example B361], the concentration for half-maximal inhibition (IC50) in experiment [1] turned out to be 121 nM; in experiment [2], 1230 nM.

For the compound `CC1(O)CN(C(=O)c2ccc(-c3ccc4nc(C(C(N)=O)S(=O)(=O)Cc5ccc(OC(F)(F)F)cc5)sc4c3)cc2)C1` (centres unmarked) [Example B362, 2-{6-[4-(3-hydroxy-3-methylazetidine-1-carbonyl)phenyl]-1,3-benzothiazol-2-yl}-2-{[4-(trifluoromethoxy)phen-yl]methanesulfonyl}a-cetamide], the IC50 in experiment [1] came out at 158 nM; in experiment [2], 30.3 nM.

Consider `CC(C)(O)Cn1ccc(-c2ccc3nc(C(C(=O)NCCS(N)(=O)=O)S(=O)(=O)Cc4ccc(F)cc4)sc3c2)cc1=O` (centres unmarked) [Example B363, 2-[(4-fluorophenyl)meth-anesulfonyl]-2-{6-[1-(2-hydroxy-2-methylpropyl)-2-oxo-1,2-dihydropyridin-4-yl]-1,3-benzothiazol-2-yl}-N-(2-sulfamoylethyl)acetamide], for which the figures for the half-inhibitory concentration (IC50) in experiment [1] and in experiment [2] were 11.6 nM and 10000 nM, respectively.

Regarding `Cn1ccc(-c2ccc3nc(C(C(=O)NCCS(N)(=O)=O)S(=O)(=O)Cc4ccc(C(F)(F)F)cc4)sc3c2)cc1=O` (centres unmarked) [Example B364, 2-[6-(1-methyl-2-oxo-1,2-dihydropyridin-4-yl)-1,3-benzothiazol-2-yl]-N-(2-sulfamoylethyl)-2-{[4-(trifluoromethyl)phen-yl]methanesulfonyl}a-cetamide], the IC50 came out at 28.3 nM in experiment [1] and 10000 nM in experiment [2].

With `NS(=O)(=O)CCNC(=O)C(c1nc2ccc(-c3ccccc3F)cc2s1)S(=O)(=O)Cc1ccc(OC(F)(F)F)cc1` (centres unmarked) [Example B365, 2-[6-(2-fluorophenyl)-1,3-benzothiazol-2-yl]-N-(2-sulfamoylethyl)-2-{[4-(trifluoromethoxy)phen-yl]methanesulfonyl}a-cetamide], the half-maximal inhibitory concentration (IC50) is 17.2 nM in experiment [1] and 2.1 nM in experiment [2].

For the compound `Cn1cc(-c2ccc3nc(C(C(=O)NCCS(N)(=O)=O)S(=O)(=O)Cc4cccc(C(F)(F)F)c4)sc3c2)ccc1=O` (centres unmarked) [Example B366, 2-[6-(1-methyl-6-oxo-1,6-dihydropyridin-3-yl)-1,3-benzothiazol-2-yl]-N-(2-sulfamoylethyl)-2-{[3-(trifluoromethyl)phen-yl]methanesulfonyl}a-cetamide], the IC50 in experiment [1] amounted to 4.4 nM; in experiment [2], 219 nM.

In the case of `COCCn1ccc(-c2ccc3nc(C(C(=O)NCCS(N)(=O)=O)S(=O)(=O)Cc4ccc(C(F)(F)F)cc4)sc3c2)cc1=O` (centres unmarked) [Example B367, 2-{6-[1-(2-methoxyethyl)-2-oxo-1,2-dihydropyridin-4-yl]-1,3-benzothiazol-2-yl}-N-(2-sulfamoylethyl)-2-{[4-(trifluoromethyl)phen-yl]methanesulfonyl}a-cetamide], the IC50 in experiment [1] worked out at 13.5 nM; in experiment [2] it was 2210 nM.

Take `Cn1ccc(-c2ccc3nc(C(C(=O)NCCS(N)(=O)=O)S(=O)(=O)Cc4ccc(OC(F)(F)F)cc4)sc3c2)cc1=O` (centres unmarked) [Example B368, 2-[6-(1-methyl-2-oxo-1,2-dihydropyridin-4-yl)-1,3-benzothiazol-2-yl]-N-(2-sulfamoylethyl)-2-{[4-(trifluoromethoxy)phen-yl]methanesulfonyl}a-cetamide]: the IC50 stood at 15.8 nM in experiment [1] and 1600 nM in experiment [2].

For the compound `CS(=O)(=O)C(C(=O)NCCS(N)(=O)=O)c1nc2cc(-c3ccnc(F)c3)ccc2s1` (centres unmarked) [Example B369, 2-[5-(2-fluoropyridin-4-yl)-1,3-benzothiazol-2-yl]-2-methanesulfonyl-N-(2-sulfamoylethyl)acetamide], the IC50 in experiment [1] stood at 1.5 nM; in experiment [2] it was 414 nM.

On to `COCCOc1ccc(-c2ccc3sc(C(C(=O)NCCS(N)(=O)=O)S(C)(=O)=O)nc3c2)cc1` (centres unmarked) [Example B370, 2-methanesulfonyl-2-{5-[4-(2-methoxyethoxy)phen-yl]-1,3-benzothiazol-2-yl}-N-(2-sulfamoylethyl)a-cetamide], for which the half-inhibitory concentration (IC50) was 1.8 nM in experiment [1] and 15.5 nM in experiment [2].

For the compound `CC(=O)Nc1ccc(-c2ccc3sc(C(C(=O)NCCS(N)(=O)=O)S(C)(=O)=O)nc3c2)cc1` (centres unmarked) [Example B371, 2-[5-(4-acetamidophenyl)-1,3-benzothiazol-2-yl]-2-methanesulfonyl-N-(2-sulfamoylethyl)acetamide], the IC50 in experiment [1] was determined as 3 nM; in experiment [2], 96.3 nM.

In the case of `CS(=O)(=O)C(C(=O)NCCS(N)(=O)=O)c1nc2cc(-c3ccc(F)nc3)ccc2s1` (centres unmarked) [Example B372, 2-[5-(6-fluoropyridin-3-yl)-1,3-benzothiazol-2-yl]-2-methanesulfonyl-N-(2-sulfamoylethyl)acetamide], the IC50 was 2.5 nM in experiment [1] and 124 nM in experiment [2].

With `CS(=O)(=O)C(C(=O)NCCS(N)(=O)=O)c1nc2cc(-c3cnoc3)ccc2s1` (centres unmarked) [Example B373, 2-methanesulfonyl-2-[5-(1,2-oxazol-4-yl)-1,3-benzothiazol-2-yl]-N-(2-sulfamoylethyl)acetamide], the IC50 is 3.3 nM in experiment [1] and 45.7 nM in experiment [2].

For `CS(=O)(=O)C(C(=O)NCCS(N)(=O)=O)c1nc2cc(-c3ncccn3)ccc2s1` (centres unmarked) [Example B374, 2-methanesulfonyl-2-[5-(pyrimidin-2-yl)-1,3-benzothiazol-2-yl]-N-(2-sulfamoylethyl)acetamide], the IC50 in experiment [1] was 0.8 nM; in experiment [2] it was 23.7 nM.

Take `NS(=O)(=O)CCNC(=O)C(c1nc2ccc(-c3ccnc(O)c3F)cc2s1)S(=O)(=O)CCC(F)(F)F` (centres unmarked) [Example B375, 2-[6-(3-fluoro-2-hydroxy-pyridin-4-yl)-1,3-benzothiazol-2-yl]-N-(2-sulfamoylethyl)-2-(3,3,3-trifluoropropanesulfonyl)a-cetamide]: the IC50 in experiment [1] stood at 14 nM; in experiment [2] it was 787 nM.

For `COCc1ccc(-c2ccc3sc(C(C(=O)NCCS(N)(=O)=O)S(C)(=O)=O)nc3c2)cc1` (centres unmarked) [Example B378, 2-methanesulfonyl-2-{5-[4-(methoxymethyl)phen-yl]-1,3-benzothiazol-2-yl}-N-(2-sulfamoylethyl)acetamide], the IC50 in experiment [1] worked out at 0.7 nM; in experiment [2], 6.7 nM.

With `CC(=O)Nc1cccc(-c2ccc3sc(C(C(=O)NCCS(N)(=O)=O)S(C)(=O)=O)nc3c2)c1` (centres unmarked) [Example B379, 2-[5-(3-acetamidophenyl)-1,3-benzothiazol-2-yl]-2-methanesulfonyl-N-(2-sulfamoylethyl)acetamide], the concentration for half-maximal inhibition (IC50) is 0.5 nM in experiment [1] and 83.7 nM in experiment [2].

Regarding `CS(=O)(=O)C(C(=O)NCCS(N)(=O)=O)c1nc2cc(-c3cccc(F)n3)ccc2s1` (centres unmarked) [Example B380, 2-[5-(6-fluoropyridin-2-yl)-1,3-benzothiazol-2-yl]-2-methanesulfonyl-N-(2-sulfamoylethyl)acetamide], the IC50 in experiment [1] is 2 nM; in experiment [2], 18.5 nM.

Take `CS(=O)(=O)C(C(=O)NCCS(N)(=O)=O)c1nc2cc(-c3ccncc3F)ccc2s1` (centres unmarked) [Example B381, 2-[5-(3-fluoropyridin-4-yl)-1,3-benzothiazol-2-yl]-2-methanesulfonyl-N-(2-sulfamoylethyl)acetamide]: the results for the IC50 in experiment [1] and in experiment [2] were 1.1 nM and 40.2 nM, respectively.

One may read the IC50 as the point on the concentration scale where inhibition reaches its midpoint. A lower IC50 goes with greater potency in that assay.
